In patent publication US9839647B2, “Equol concentration increasing agent containing psicose as active ingredient” (CJ CHEILJEDANG CORPORATION, priority 2011, dated 2017):

What was measured:
[1] = test system: intestinal bacteria capable of producing equol; conditions: saccharide no add = 100.0; cited from earlier work
[2] = test system: equol producing microorganism population; assay: Change in produced equol amount in the presence of carbohydrate (TLC image analysis); type: cell-based, human; conditions: for Variation (produced equol amount relative to culture solution containing xylose and daidzein): 1% carbohydrate, 0.1 mM daidzein, three days, xylose = 100, average of image analysis for two coloring methods
Protocol: The activity for regulating equol concentration by psicose was calculated as follows. To a microorganism population stock having capability to produce equol (obtained by centrifuging and washing feces taken from equol producers, KR Patent Registration No. 2008-0072635), daidzein as a substrate for equol, and psicose were added, followed by culturing and measuring the equol concentration in a culture solution. The measured equol concentration was inserted together with equol concentration in a culture solution containing daidzein and xylose into Equation for calculating equol variation percentage below: Equol variation percentage (%)=(Equol concentration in the culture solution containing psicose and daidzein)/(Equol concentration in the culture solution containing xylose and daidzein)×100
GAM (Gifu anaerobic medium) medium (4 ml) was inoculated with equol producing microorganism population stock stored in liquid nitrogen (obtained by centrifuging and washing feces taken from equol producers, KR Patent Registration No. 2008-0072635), followed by cultivating for 3-4 hours to activate.
When OD (optical density) approached 1.5, 200 μl of medium was taken and transferred to an Eppendorf tube. To the Eppendorf tube, 0.1 mM of daidzein was added, followed by vortexing to initiate reaction.
In order to measure equol production over time, 50 μl of medium was sampled 1, 2 and 3 days after the inoculation.
To the medium, 1 ml of ethyl acetate was added to extract isoflavonoids. Extraction was performed as follows: after vortexing and centrifugation, 800 μl of ethyl acetate was taken from the medium, followed by removal of the solvent through vacuum drying. Then, the resultant was dissolved in 10 μl of methanol. 2 μl was used to perform TLC.
Equol producing microorganism population was inoculated and the product was extracted in the same manner as in Example 1 except that, before the substrate was inoculated with the activated microorganism population, the final concentration of carbohydrate was adjusted to 1% by adding 2 mg each of xylose, tagatose, psicose, sucrose, fructo-oligosaccharide, and glucose. Further, only daidzein was used as the substrate. Unlike the case where pure daidzein was used, the reaction rate of producing equol was changed when carbohydrates were added. Namely, the production of equol occurred more slowly for a long period of time.
In order to compare variation in the produced equol amount in the product, quantitative analysis of TLC results was performed using an image analyzer.
Assuming the produced equol amount in the culture solution containing xylose and daidzein to be 100, the produced equol amount after addition of each carbohydrate for three days was compared. The comparison results are as follows.

| Compound | Activity to regulate equol concentration [1] [%] | Variation (produced equol amount relative to culture solution containing xylose and daidzein) [2] [%] | equol production ([2]; reaction condition for three days) |
| --- | --- | --- | --- |
| OC[C@H]1O[C@H](OCC2O[C@@H](O)[C@H](O)[C@@H](O)[C@@H]2O)[C@H](O)[C@@H](O)[C@H]1O (some centres unmarked) [Melibiose] | 24.8 |  |  |
| O=C[C@H](O)[C@H](O)[C@H](O)CO [Ribose, ribose] | 329.6 |  |  |
| Inulin | 0.0 |  |  |
| OC[C@@H](O)[C@@H](O[C@@H]1O[C@H](CO)[C@H](O)[C@H](O)[C@H]1O)[C@H](O)[C@@H](O)CO [Lactitol, lactitol] | 459.1 |  |  |
| OC[C@@H](O)[C@@H](O)[C@H](O)[C@H](O)CO [Mannitol] | 182.2 |  |  |
| OC[C@@H](O)[C@@H](O)[C@H](O)[C@@H](O)CO [Sorbiol] | 372.5 |  |  |
| OC[C@H]1O[C@H](O[C@H]2O[C@H](CO)[C@@H](O)[C@H](O)[C@H]2O)[C@H](O)[C@@H](O)[C@@H]1O [Trehalose, trehalose] | 403.5 |  |  |
| OC[C@H]1O[C@@H](O[C@H]2[C@H](O)[C@@H](O)C(O)O[C@@H]2CO)[C@H](O)[C@@H](O)[C@H]1O (some centres unmarked) [Lactose] | 0.0 |  |  |
| OC[C@H]1O[C@@](CO)(O[C@H]2O[C@H](CO)[C@@H](O)[C@H](O)[C@H]2O)[C@@H](O[C@H]2O[C@H](CO)[C@@H](O)[C@H](O)[C@H]2O)[C@@H]1O [Melezitose, melezitose] | 411.6 |  |  |
| O=C[C@H](O)[C@@H](O)[C@@H](O)[C@H](O)CO [Galactose, galactose] | 240.1 |  |  |
| OC[C@@H](O)[C@@H](O)CO [Erythritol, erythritol] | 214.2 |  |  |
| O=C(CO)[C@H](O)[C@@H](O)[C@H](O)CO [Sorbose, sorbose] | 467.7 |  |  |
| OC[C@@H](O)[C@@H](O)[C@@H](O)CO [Adonitol, adonitol] | 260.0 |  |  |
| OC[C@H]1O[C@H](O[C@H]2[C@H](O)[C@@H](O)[C@H](O)O[C@@H]2CO)[C@H](O)[C@@H](O)[C@@H]1O [Maltose] | 58.5 |  |  |
| O=C(CO)[C@H](O)[C@H](O)[C@H](O)CO [Psicose, D-psicose] |  | 139 | significantly promoted equol production |
| O=C[C@H](O)[C@@H](O)[C@H](O[C@@H]1O[C@H](CO)[C@@H](O)[C@H](O)[C@H]1O)[C@H](O)CO [Cellobiose] | 160.6 |  |  |
| C[C@H](O)[C@H](O)[C@@H](O)[C@@H](O)C=O [Rhamnose] | 116.4 |  |  |
| OC[C@H]1O[C@H](OC[C@H]2O[C@H](O[C@]3(CO)O[C@H](CO)[C@@H](O)[C@@H]3O)[C@H](O)[C@@H](O)[C@@H]2O)[C@H](O)[C@@H](O)[C@H]1O [Raffinose] | 0.0 |  |  |
| O=C[C@H](O)[C@@H](O)[C@H](O)CO [Xylose, xylose] | 442.6 | 100 |  |
| Glycogen | 184.8 |  |  |
| OC[C@H]1O[C@@H](O[C@@H]2[C@@H](CO)OC(O)(CO)[C@H]2O)[C@H](O)[C@@H](O)[C@H]1O (mixture of isomers) [Lactulose] | 8.1 |  |  |
| O=C(CO)[C@@H](O)[C@@H](O)[C@H](O)CO [Tagatose, tagatose] |  | 54 |  |
| O[C@H]1[C@H](O)[C@@H](O)[C@H](O)[C@@H](O)[C@H]1O [Inositol, inositol] | 416.2 |  |  |
| O=C[C@@H](O)[C@H](O)[C@H](O)CO [Arabinose, arabinose] | 391.1 |  |  |
| OC[C@H]1O[C@@](CO)(O[C@H]2O[C@H](CO)[C@@H](O)[C@H](O)[C@H]2O)[C@@H](O)[C@@H]1O [Sucrose, sucrose] | 0.0 | 54 |  |
| O=C(CO)[C@@H](O)[C@H](O)[C@H](O)CO [Fructose] | 51.5 |  |  |
